# Data published in article PMC9077246, “Novel spirocyclic tranylcypromine derivatives as lysine-specific demethylase 1 (LSD1) inhibitors” (RSC Advances, 2018).
# Counter-ions that a name gives are not always drawn.
# Legend:
# [1] = molecular target: T1, Recombinant human LSD1 (172–852 aa) (Homo sapiens, UniProt O60341); assay: biochemical
# Method: (§1) LSD1 or LSD2 enzyme inhibition assay was performed with Lance Ultra LSD1 Histone H3-Lysine 4 Demethylase Assay kit (Perkin Elmer) according to the manufacturer's protocol. […] The test was carried out in triplicate. And the IC50 data was calculated using the software GraphPad Prism 5, and chosen the equation “sigmoidal dose–response (variable slope)” for curve fitting.
# MAO-B = molecular target: T2, MAO-B (Homo sapiens, UniProt P27338); assay: biochemical; details: MAO-B, IC50, Table 1; mean ± SEM, eight-point experiments, three independent experiments
# T2 sequence (P27338 1-520): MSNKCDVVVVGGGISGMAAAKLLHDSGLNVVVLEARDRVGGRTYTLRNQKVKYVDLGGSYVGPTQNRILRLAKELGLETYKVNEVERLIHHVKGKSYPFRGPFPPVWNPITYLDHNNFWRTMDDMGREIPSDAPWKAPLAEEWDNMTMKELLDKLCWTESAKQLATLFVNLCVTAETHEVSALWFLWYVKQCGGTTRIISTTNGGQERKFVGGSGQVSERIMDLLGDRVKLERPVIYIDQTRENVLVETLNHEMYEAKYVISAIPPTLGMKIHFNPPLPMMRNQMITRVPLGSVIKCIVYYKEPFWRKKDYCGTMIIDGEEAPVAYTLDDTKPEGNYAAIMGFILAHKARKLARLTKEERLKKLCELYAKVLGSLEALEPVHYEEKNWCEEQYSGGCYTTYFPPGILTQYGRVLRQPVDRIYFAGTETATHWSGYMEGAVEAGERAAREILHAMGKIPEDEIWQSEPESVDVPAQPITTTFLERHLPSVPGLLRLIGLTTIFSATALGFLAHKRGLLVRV
# Method: (§2) MAO-A and MAO-B enzymes were purchased from Sigma-Aldrich and the inhibition assay was tested with Promega MAO-Glo™ Assay kit according to the manufacturer's protocol. The luminescent signals were detected using Envision (PerkinElmer). The test was carried out in triplicate. And the IC50 data was calculated using the software GraphPad Prism 5, and chosen the equation “sigmoidal dose–response (variable slope)” for curve fitting.
# MAO-A = molecular target: T3, MAO-A (Homo sapiens, UniProt P21397); assay: biochemical; details: MAO-A, IC50, Table 1; mean ± SEM, eight-point experiments, three independent experiments
# T3 sequence (P21397 1-527): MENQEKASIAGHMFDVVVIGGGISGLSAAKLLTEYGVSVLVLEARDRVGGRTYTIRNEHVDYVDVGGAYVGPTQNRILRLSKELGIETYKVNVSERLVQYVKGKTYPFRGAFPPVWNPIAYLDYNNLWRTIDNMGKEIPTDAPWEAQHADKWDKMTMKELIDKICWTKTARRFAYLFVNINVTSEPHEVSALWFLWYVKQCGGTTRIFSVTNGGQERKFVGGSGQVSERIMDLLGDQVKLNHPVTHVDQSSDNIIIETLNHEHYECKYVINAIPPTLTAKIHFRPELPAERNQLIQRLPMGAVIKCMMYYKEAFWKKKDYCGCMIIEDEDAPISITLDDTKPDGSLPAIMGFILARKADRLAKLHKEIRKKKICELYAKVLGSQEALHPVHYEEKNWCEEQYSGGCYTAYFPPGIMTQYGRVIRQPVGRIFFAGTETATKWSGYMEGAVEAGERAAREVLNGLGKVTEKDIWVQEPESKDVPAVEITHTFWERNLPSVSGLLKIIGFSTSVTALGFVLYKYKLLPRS
# Method: as §2
# [2] = molecular target: T1, Recombinant human LSD1 (172–852 aa); details: for fold more potent at LSD1 than 8a and 8b, respectively: 21a vs 8a, 21b vs 8b; for fold reduction in LSD1 inhibitory potency vs 23a, 23b: 24a, 24b vs 23a; for fold reduction in LSD1 inhibitory potency vs 28a, 28b: 29a, 29b vs 28a; for LSD1 IC50 level in words: potency range in words
# Method: as §1
SMILES,IC50 [1] [µM],IC50 (MAO-B) [µM],IC50 (MAO-A) [µM],also measured
"c1ccc(CN[C@@H]2CC23CCc2ccccc23)cc1 (mixture of isomers) [Compound 13a, (2R)-N-Benzyl-2′,3′-dihydrospiro[cyclopropane-1,1′-inden]-2-amine]",3.3 ± 0.6,–,–,–
"Fc1ccccc1CN[C@@H]1CC12CCc1ccccc12 (mixture of isomers) [Compound 15a, (2R)-N-(2-Fluorobenzyl)-2′,3′-dihydrospiro[cyclopropane-1,1′-inden]-2-amine]",–,9.8 ± 2.3,4.8 ± 0.5,–
"c1cncc(CN[C@@H]2CC23CCc2ccccc23)c1 (mixture of isomers) [Compound 21a, (2R)-N-(Pyridin-3-ylmethyl)-2′,3′-dihydrospiro[cyclopropane-1,1′-inden]-2-amine]",0.017 ± 0.003,15 ± 1,10.8 ± 1.1,"fold more potent at LSD1 than 8a and 8b, respectively [2]: 10 fold"
"c1cncc(CN[C@H]2CC23CCc2ccccc23)c1 (mixture of isomers) [Compound 21b, (2S)-N-(Pyridin-3-ylmethyl)-2′,3′-dihydrospiro[cyclopropane-1,1′-inden]-2-amine]",0.02 ± 0.003,28 ± 6,6 ± 1.1,"fold more potent at LSD1 than 8a and 8b, respectively [2]: 39 fold"
"COc1ccccc1CN[C@@H]1CC12CCc1ccccc12 (stereo in doubt) [Compound 14a, (2R)-N-(2-Methoxybenzyl)-2′,3′-dihydrospiro[cyclopropane-1,1′-inden]-2-amine]",–,12 ± 1,5.9 ± 1.1,–
"COc1ccccc1CN[C@H]1CC12CCc1ccccc12 (stereo in doubt) [Compound 14b, (2S)-N-(2-Methoxybenzyl)-2′,3′-dihydrospiro[cyclopropane-1,1′-inden]-2-amine]",–,70 ± 35,1.7 ± 0.3,–
"Fc1ccccc1CN[C@H]1CC12CCc1ccccc12 (stereo in doubt) [Compound 15b, (2S)-N-(2-Fluorobenzyl)-2′,3′-dihydrospiro[cyclopropane-1,1′-inden]-2-amine]",–,32 ± 3,2.5 ± 0.1,–
"COc1ccc(Br)cc1CN[C@@H]1CC12CCc1ccccc12 (stereo in doubt) [Compound 16a, (2R)-N-(5-Bromo-2-methoxybenzyl)-2′,3′-dihydrospiro[cyclopropane-1,1′-inden]-2-amine]",–,1.2 ± 0.2,3.7 ± 0.8,–
"COc1ccc(Br)cc1CN[C@H]1CC12CCc1ccccc12 (stereo in doubt) [Compound 16b, (2S)-N-(5-Bromo-2-methoxybenzyl)-2′,3′-dihydrospiro[cyclopropane-1,1′-inden]-2-amine]",–,7.7 ± 3.8,0.39 ± 0.19,–
"COc1ccc(CN[C@@H]2CC23CCc2ccccc23)c(Cl)c1OC (stereo in doubt) [Compound 20a, (2R)-N-(2-Chloro-3,4-dimethoxybenzyl)-2′,3′-dihydrospiro[cyclopropane-1,1′-inden]-2-amine]",–,20 ± 1,1.4 ± 0.1,–
"COc1ccc(CN[C@H]2CC23CCc2ccccc23)c(Cl)c1OC (stereo in doubt) [Compound 20b, (2S)-N-(2-Chloro-3,4-dimethoxybenzyl)-2′,3′-dihydrospiro[cyclopropane-1,1′-inden]-2-amine]",–,7 ± 0.7,5 ± 1.8,–
"COc1ncccc1CN[C@@H]1CC12CCc1ccccc12 (stereo in doubt) [Compound 22a, (2R)-N-((2-Methoxypyridin-3-yl)methyl)-2′,3′-dihydrospiro[cyclopropane-1,1′-inden]-2-amine]",0.032 ± 0.006,47 ± 5,> 100,fold less potent at LSD1 than the cis-isomer ([2]; 22a vs 22b): 3 fold
"COc1ncccc1CN[C@H]1CC12CCc1ccccc12 (stereo in doubt) [Compound 22b, (2S)-N-((2-Methoxypyridin-3-yl)methyl)-2′,3′-dihydrospiro[cyclopropane-1,1′-inden]-2-amine]",0.01 ± 0.005,68 ± 8,> 100,–
"Fc1cccnc1CN[C@@H]1CC12CCc1ccccc12 (stereo in doubt) [Compound 24a, (2R)-N-((3-Fluoropyridin-2-yl)methyl)-2′,3′-dihydrospiro[cyclopropane-1,1′-inden]-2-amine]",0.25 ± 0.01,–,–,"fold reduction in LSD1 inhibitory potency vs 23a, 23b [2]: ≥ 4 fold"
"Fc1cccnc1CN[C@H]1CC12CCc1ccccc12 (stereo in doubt) [Compound 24b, (2S)-N-((3-Fluoropyridin-2-yl)methyl)-2′,3′-dihydrospiro[cyclopropane-1,1′-inden]-2-amine]",0.47 ± 0.02,–,–,"fold reduction in LSD1 inhibitory potency vs 23a, 23b [2]: ≥ 4 fold"
"O=C(CN[C@@H]1CC12CCc1ccccc12)N1CCOCC1 (stereo in doubt) [Compound 25a, 2-(((2R)-2′,3′-Dihydrospiro[cyclopropane-1,1′-inden]-2-yl)amino)-1-morpholinoethan-1-one hydrochloride]",1.4 ± 0.1,–,–,–
"O=C(CN[C@H]1CC12CCc1ccccc12)N1CCOCC1 (stereo in doubt) [Compound 25b, 2-(((2S)-2′,3′-Dihydrospiro[cyclopropane-1,1′-inden]-2-yl)amino)-1-morpholinoethan-1-one hydrochloride]",22 ± 4,–,–,–
"N[C@H]1CC12CCc1cc(-c3ccccc3)ccc12 (stereo in doubt) [Compound 28b, (2S)-5′-Phenyl-2′,3′-dihydrospiro[cyclopropane-1,1′-inden]-2-amine hydrochloride]",2.7 ± 0.2,–,–,–
"Cl.N[C@@H]1CC12CCc1cc(-c3ccc(F)cc3)ccc12 (stereo in doubt) [Compound 29a, (2R)-5′-(4-Fluorophenyl)-2′,3′-dihydrospiro[cyclopropane-1,1′-inden]-2-amine hydrochloride]",0.3 ± 0.01,–,–,"fold reduction in LSD1 inhibitory potency vs 28a, 28b [2]: approximately 3 fold"
"Cl.N[C@H]1CC12CCc1cc(-c3ccc(F)cc3)ccc12 (stereo in doubt) [Compound 29b, (2S)-5′-(4-Fluorophenyl)-2′,3′-dihydrospiro[cyclopropane-1,1′-inden]-2-amine hydrochloride]",6 ± 0.8,–,–,"fold reduction in LSD1 inhibitory potency vs 28a, 28b [2]: approximately 3 fold"
"COc1ccc(F)cc1CN[C@@H]1CC12CCc1cc(-c3ccccc3)ccc12 (stereo in doubt) [Compound 30a, (2R)-N-(5-Fluoro-2-methoxybenzyl)-5′-phenyl-2′,3′-dihydrospiro[cyclopropane-1,1′-inden]-2-amine]",1.7 ± 0.1,–,–,LSD1 IC50 level in words [2]: single digit micromolar range
"COc1ccc(F)cc1CN[C@H]1CC12CCc1cc(-c3ccccc3)ccc12 (stereo in doubt) [Compound 30b, (2S)-N-(5-Fluoro-2-methoxybenzyl)-5′-phenyl-2′,3′-dihydrospiro[cyclopropane-1,1′-inden]-2-amine]",4.4 ± 0.3,–,–,LSD1 IC50 level in words [2]: single digit micromolar range
"COc1ccc(CN[C@@H]2CC23CCc2cc(-c4ccccc4)ccc23)c(Cl)c1OC (stereo in doubt) [Compound 31a, (2R)-N-(2-Chloro-3,4-dimethoxybenzyl)-5′-phenyl-2′,3′-dihydrospiro[cyclopropane-1,1′-inden]-2-amine]",8.9 ± 1.2,–,–,LSD1 IC50 level in words [2]: single digit micromolar range
"COc1ccc(F)cc1CN[C@@H]1CC12CCc1cc(-c3ccc(F)cc3)ccc12 (stereo in doubt) [Compound 32a, (2R)-N-(5-Fluoro-2-methoxybenzyl)-5′-(4-fluorophenyl)-2′,3′-dihydrospiro[cyclopropane-1,1′-inden]-2-amine]",2.6 ± 0.5,–,–,LSD1 IC50 level in words [2]: single digit micromolar range
"NC1CCC(N[C@@H]2C[C@H]2c2ccccc2)CC1 (stereo partly drawn) [Compound 6, N1-[(1R, 2S)-2-phenylcyclopropyl]cyclohexane-1,4-diamine dihydrochloride, reference compound]",–,–,> 100,–
"COc1ccc(CNC2CC23CCc2ccccc23)cc1OC [Compound 19a, (2R)-N-(3,4-Fimethoxybenzyl)-2′,3′-dihydrospiro[cyclopropane-1,1′-inden]-2-amine]",–,15 ± 2,11.7 ± 2.4,–
"COc1ccc(CNC2CC23CCc2ccccc23)cc1OC [Compound 19b, (2S)-N-(3,4-Fimethoxybenzyl)-2′,3′-dihydrospiro[cyclopropane-1,1′-inden]-2-amine]",–,27 ± 4,3.1 ± 0.2,–
